Laboratory results taken from patent US8580825B2, “Oxadiazole inhibitors of leukotriene production” (Boehringer Ingelheim International GmbH, priority 2010, dated 2013).

How the values were obtained:
[1] = test system: synthesis of LTB4 in human whole blood; assay: human whole blood LTB4 production inhibition assay; type: cell-based; details: calcimycin stimulated, read-out: hWB LTB4 IC50
How it was run: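 LTB4 levels in plasma were measured by antibody-based HTRF after heparinized human whole blood, pretreated with compound (15 min, 37° C), was challenged with 20 μM calcimycin for 30 min at 37° C.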

[2] = target: T1, recombinant human FLAP protein (Homo sapiens, UniProt P20292); assay: FLAP binding assay (Scintillation Proximity Assay, displacement of [125I]L-691,831); details: read-out: FLAP SPA IC50
T1 construct: made in house; host or cells: Sf9 insect cells (100,000xg membrane fraction used)
T1 sequence (P20292 1-161): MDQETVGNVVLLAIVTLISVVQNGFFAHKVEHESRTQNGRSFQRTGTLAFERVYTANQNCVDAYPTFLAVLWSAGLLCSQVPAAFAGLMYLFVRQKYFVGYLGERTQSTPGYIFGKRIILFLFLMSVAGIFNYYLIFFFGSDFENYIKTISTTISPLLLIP
How it was run: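 Scintillation proximity displacement of [125I]L-691,831 (0.08 nM) from membranes of sf9 cells expressing recombinant human FLAP (5 μg/well) on WGA SPA beads, pH 7.5 Tris buffer. Plates shaken 2 h before counting. Non-specific binding defined with 10 μM unlabelled L-691,831.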

Row | SMILES | IC50 [1] [µM] | IC50 [2] [µM]
1 | CN(C)CCn1cc(-c2nc([C@@](C)(c3ccc(-c4cnc(N)cn4)nc3)C3CC3)no2)cn1 [Example 124, 5-[5-((R)-1-Cyclopropyl-1-{5-[1-(2-dimethylamino-ethyl)-1H-pyrazol-4-yl]-[1,2,4]oxadiazol-3-yl}-ethyl)-pyridin-2-yl]-pyrazin-2-ylamine] | 0.06 | 0.018
2 | CC(C)[C@](C)(c1ccc(-c2cnc(N)cn2)nc1)c1noc(-c2cnn(CC(=O)N(C)C)c2)n1 [Example 112, 2-[4-(3-{(R)-[6-(5-Amino-pyrazin-2-yl)-pyridin-3-yl]-1,2-dimethyl-propyl}-[1,2,4]oxadiazol-5-yl)-pyrazol-1-yl]-N,N-dimethyl-acetamide] | 0.071 | 0.0048
3 | CC(C)[C@](C)(c1ccc(-c2cnc(N)nc2)nc1)c1noc(-c2cnn(C3CCS(=O)(=O)C3)c2)n1 (stereo partly drawn) [Example 96, 5-[5-((R)-1-{5-[1-(1,1-Dioxo-tetrahydro-116-thiophen-3-yl)-1H-pyrazol-4-yl]-[1,2,4]oxadiazol-3-yl}-1,2-dimethyl-propyl)-pyridin-2-yl]-pyrimidin-2-ylamine] | 0.24 | 0.0099
4 | CNc1cnc(-c2ccc([C@@](C)(c3noc(-c4cnn(CC(C)(C)O)c4)n3)C3CC3)cn2)cn1 [Example 157, 1-[4-(3-{(S)-1-Cyclopropyl-1-[6-(5-methylamino-pyrazin-2-yl)-pyridin-3-yl]-ethyl}-[1,2,4]oxadiazol-5-yl)-pyrazol-1-yl]-2-methyl-propan-2-ol] | 0.969 | 0.42
5 | CC(C)[C@](C)(c1ccc(-c2cnc(N)cn2)nc1)c1noc(-c2cnc(N3CCNCC3)cn2)n1 [Example 105, 5-(5-{(R)-1,2-Dimethyl-1-[5-(3,4,5,6-tetrahydro-2H-[1,2′]bipyrazinyl-5′-yl)-[1,2,4]oxadiazol-3-yl]-propyl}-pyridin-2-yl)-pyrazin-2-ylamine] | 0.45 | 0.0078
6 | CC(C)(O)Cn1cc(-c2nc(C(C)(C)c3ccc(-c4cnc(N)nc4)nc3)no2)cn1 [Example 88, 1-[4-(3-{2-[6-(2-aminopyrimidin-5-yl)pyridin-3-yl]propan-2-yl}-1,2,4-oxadiazol-5-yl)-1H-pyrazol-1-yl]-2-methylpropan-2-ol] | 1.5 | 0.37
7 | COC(=O)C(C)(C)n1cc(-c2nc(C(C)(C)c3ccc(-c4cnc(N)nc4)nc3)no2)cn1 [Example 90, methyl 2-[4-(3-{2-[6-(2-aminopyrimidin-5-yl)pyridin-3-yl]propan-2-yl}-1,2,4-oxadiazol-5-yl)-1H-pyrazol-1-yl]-2-methylpropanoate] | 0.95 | 0.14
8 | CC(C)(O)Cn1cc(-c2nc([C@@](C)(c3ccc(-c4cnc(N)cn4)nc3)C3CC3)no2)cn1 [Example 100, 1-[4-(3-{(R)-1-[6-(5-Amino-pyrazin-2-yl)-pyridin-3-yl]-1-cyclopropyl-ethyl}-[1,2,4]oxadiazol-5-yl)-pyrazol-1-yl]-2-methyl-propan-2-ol] | 0.21 | 0.053
9 | CC(C)[C@](C)(c1ccc(-c2cnc(N)nc2)nc1)c1noc(-c2cnn(CC(=O)NCC3CCCO3)c2)n1 (stereo partly drawn) [Example 148, 2-[4-(3-{(R)-1-[6-(2-Amino-pyrimidin-5-yl)-pyridin-3-yl]-1,2-dimethyl-propyl}-1,2,4-oxadiazol-5-yl)-pyrazol-1-yl]-N-(tetrahydro-furan-2-ylmethyl)-acetamide] | 0.29 | 0.022
10 | CCNC(=O)Cn1cc(-c2nc([C@@](C)(c3ccc(-c4cnc(N)nc4)nc3)C(C)C)no2)cn1 [Example 149, 2-[4-(3-{(R)-1-[6-(2-Amino-pyrimidin-5-yl)-pyridin-3-yl]-1,2-dimethyl-propyl}-1,2,4-oxadiazol-5-yl)-pyrazol-1-yl]-N-ethyl-acetamide] | 0.14 | 0.015
11 | CC(C)C(C)(c1ccc(-c2cnc(N)nc2)nc1)c1noc(-c2ccc(I)c(Br)c2)n1 (stereo not shown) [Example 69, 5-(5-{2-[5-(3-bromo-4-iodophenyl)-1,2,4-oxadiazol-3-yl]-3-methylbutan-2-yl}pyridin-2-yl)pyrimidin-2-amine] | 0.84 | 0.0648
12 | COC1CCN(C(=O)Cn2cc(-c3nc([C@@](C)(c4ccc(-c5cnc(N)nc5)nc4)C(C)C)no3)cn2)CC1 [Example 155, 2-[4-(3-{(R)-1-[6-(2-Amino-pyrimidin-5-yl)-pyridin-3-yl]-1,2-dimethyl-propyl}-1,2,4-oxadiazol-5-yl)-pyrazol-1-yl]-1-(4-methoxy-piperidin-1-yl)-ethanone] | 0.11 | 0.019
13 | CC(C)[C@](C)(c1ccc(-c2ccc(N)nc2)nc1)c1noc(-c2cnn(C3COC3)c2)n1 [Example 131, 5-{(R)-1,2-Dimethyl-1-[5-(1-oxetan-3-yl-1H-pyrazol-4-yl)-[1,2,4]oxadiazol-3-yl]-propyl}-[2,3′]bipyridinyl-6′-ylamine] | 0.039 | 0.0056
14 | COCCn1cc(-c2nc([C@@](C)(c3ccc(-c4ccc(N)nc4)nc3)C(C)C)no2)cn1 [Example 133, 5-((R)-1-{5-[1-(2-Methoxy-ethyl)-1H-pyrazol-4-yl]-[1,2,4]oxadiazol-3-yl}-1,2-dimethyl-propyl)-[2,3′]bipyridinyl-6′-ylamine] | 0.03 | 0.0075
15 | CC(C)[C@@](C)(c1ccc(-c2cnc(N)nc2)nc1)c1noc(-c2cnn(CC(=O)N(C)C)c2)n1 [Example 59, 2-[4-(3-{(2S)-2-[6-(2-aminopyrimidin-5-yl)pyridin-3-yl]-3-methylbutan-2-yl}-1,2,4-oxadiazol-5-yl)-1H-pyrazol-1-yl]-N,N-dimethylacetamide] | 1.8 | 0.45
16 | CC(C)[C@](C)(c1ccc(-c2cnc(N)nc2)nc1)c1noc(-c2cnn(CC(=O)NC3CC3)c2)n1 [Example 147, 2-[4-(3-{(R)-1-[6-(2-Amino-pyrimidin-5-yl)-pyridin-3-yl]-1,2-dimethyl-propyl}-1,2,4-oxadiazol-5-yl)-pyrazol-1-yl]-N-cyclopropyl-acetamide] | 0.17 | 0.0086

Second part, the molecule after the results:

Row | IC50 [1] [µM] | IC50 [2] [µM] | SMILES
17 | 0.24 | 0.0124 | CC(C)C(C)(c1ccc(-c2cnc(N)nc2)nc1)c1noc(-c2cccnc2)n1 (stereo not shown) [Example 70, 5-(5-{3-methyl-2-[5-(pyridin-3-yl)-1,2,4-oxadiazol-3-yl]butan-2-yl}pyridin-2-yl)pyrimidin-2-amine]
18 | 0.054 | 0.0083 | CC(O)Cn1cc(-c2nc(C(C)(c3ccc(-c4cnc(N)nc4)nc3)C(C)C)no2)cn1 (stereo not shown) [Example 1, 1-[4-(3-{2-[6-(2-aminopyrimidin-5-yl)pyridin-3-yl]-3-methylbutan-2-yl}-1,2,4-oxadiazol-5-yl)-1H-pyrazol-1-yl]propan-2-ol]
19 | 0.02 | 0.003 | CC(C)[C@](C)(c1ccc(-c2cnc(N)nc2)nc1)c1noc(-c2cnn(C)c2)n1 [Example 4, 5-(5-{(2R)-3-methyl-2-[5-(1-methyl-1H-pyrazol-4-yl)-1,2,4-oxadiazol-3-yl]butan-2-yl}pyridin-2-yl)pyrimidin-2-amine]
20 | 3.2 | 0.21 | CC(C)[C@@](C)(c1ccc(-c2cnc(N)nc2)nc1)c1noc(-c2cnn(C(C)(C)CO)c2)n1 [Example 35, 2-[4-(3-{(2S)-2-[6-(2-aminopyrimidin-5-yl)pyridin-3-yl]-3-methylbutan-2-yl}-1,2,4-oxadiazol-5-yl)-1H-pyrazol-1-yl]-2-methylpropan-1-ol]
21 | 0.075 | 0.0023 | CNc1cnc(-c2nc(C(C)(c3ccc(-c4cnc(N)nc4)nc3)C(C)C)no2)cn1 (stereo not shown) [Example 15, 5-[5-(3-methyl-2-{5-[5-(methylamino)pyrazin-2-yl]-1,2,4-oxadiazol-3-yl}butan-2-yl)pyridin-2-yl]pyrimidin-2-amine]
22 | 0.14 | 0.0036 | CC(C)C(C)(c1ccc(-c2cnc(N)nc2)nc1)c1noc(-c2cnc(NC[C@H](C)O)cn2)n1 (stereo partly drawn) [Example 22, (2S)-1-{[5-(3-{2-[6-(2-aminopyrimidin-5-yl)pyridin-3-yl]-3-methylbutan-2-yl}-1,2,4-oxadiazol-5-yl)pyrazin-2-yl]amino}propan-2-ol]
23 | 0.22 | 0.0031 | CC(C)C(C)(c1ccc(-c2cnc(N)nc2)nc1)c1noc(-c2ccc(NCCO)nc2)n1 (stereo not shown) [Example 74, 2-{[5-(3-{2-[6-(2-aminopyrimidin-5-yl)pyridin-3-yl]-3-methylbutan-2-yl}-1,2,4-oxadiazol-5-yl)pyridin-2-yl]amino}ethanol]
24 | 0.03 | 0.0079 | CC(C)[C@](C)(c1ccc(-c2cnc(N)nc2)nc1)c1noc(-c2cnn(CCN(C)C)c2)n1 [Example 97, 5-[5-((R)-1-{5-[1-(2-Dimethylamino-ethyl)-1H-pyrazol-4-yl]-[1,2,4]oxadiazol-3-yl}-1,2-dimethyl-propyl)-pyridin-2-yl]-pyrimidin-2-ylamine]
25 | 0.04 | 0.0029 | CC(C)C(C)(c1ccc(-c2cnc(N)nc2)nc1)c1noc(-c2cnn3cccnc23)n1 (stereo not shown) [Example 11, 5-(5-{3-methyl-2-[5-(pyrazolo[1,5-a]pyrimidin-3-yl)-1,2,4-oxadiazol-3-yl]butan-2-yl}pyridin-2-yl)pyrimidin-2-amine]
26 | 0.1 | 0.0079 | CCNc1cnc(-c2nc([C@](C)(c3ccc(-c4cnc(N)nc4)nc3)C(C)C)no2)cn1 [Example 40, 5-{5-[(2S)-2-{5-[5-(ethylamino)pyrazin-2-yl]-1,2,4-oxadiazol-3-yl}-3-methylbutan-2-yl]pyridin-2-yl}pyrimidin-2-amine]
